# Like-named read-outs stand apart in the source and are kept apart here.
# Assays:
# [1] = Repeat daily oral doses, quinic acid analyzed in serum by HPLC; assay type: in vivo, human
# Method: Trial design for the clinical evaluation of Aqua Bimini™ (quinic acid ammonium chelate) was carried out at Lund University beginning Apr. 28, 2006. Two Subjects identity code protected as HL and RP received Aqua Bimini™ at 1500 mg/day and 3000 mg/day, respectively for 4 consecutive weeks (36 days). Repeat serum and urine samples were collected throughout the trial period and then pooled into groups for analysis as 6 weeks before (baseline), 4 weeks of intervention (treatment, 36 days) and 8 months dry-out (no treatment).
# Two human volunteers subject two and subject one ingested daily doses of 1500 mg per day or 3000 mg per day and serum samples collected on May 8, May 15, May 18, May 23, May 29, and June 1.
# These samples were each analyzed for quinic acid content in 200 μl serum after precipitation with 2 M trichloroacetic acid (TCA). The column used for these experiments was a C18 80×4.6 mm. The mobile phase was 0.2% trifluoroacetic (TFA):methanol 85:15. The UV detector was set at 215 nm and quinic acid eluted with a retention time of 1.40-1.5 min. The sensitivity for detection of this method was about 1 mg quinic acid /ml serum or a detectable dose of 70 mg/kg in humans not 21 to 42 mg/kg as used herein in this study. Thus this protocol could assess if the quinic acid levels in serum would accumulate after repeated daily administration during a period of 4-5 weeks.
# [2] = Urinary quinic acid, hippuric acid, tryptophan and nicotinamide by HPLC; assay type: in vivo, human; conditions: for urinary tryptophan at start of treatment / urinary nicotinamide at start of treatment: 8 May 2006 and 15 May 2006; for dose excreted at 9 month: urine, oral, read-out: Dose recovery (excrete/dose), excreted as unmetabolized quinic acid
# Method: Blood samples were collected by venal puncture using vacutainers (red top, 10 ml) usually in the morning (a.m.) after 12 hours of fasting. Serum was separated from the blood clot after setting 2 hr on the bench top before centrifugation for 10 min at 1500×g. Sera prepared in this manner were stored at +4° C. until biochemical analysis usually within 1-30 days of collection. Urine samples were collected as a random 50 ml sample in the A.M. during the treatment and follow-up (after treatment for 8 months) periods. Urine was spun at 5000×g for 15 min and the supernatant stored at +4° C. until analyzed within 1 month of collection. After the first analysis all samples were further stored at −20° C. and used for repeat determinations over time. Trial design for the clinical evaluation of Aqua Bimini™ (quinic acid ammonium chelate) was carried out at Lund University beginning Apr. 28, 2006. […] Repeat serum and urine samples were collected throughout the trial period and then pooled into groups for analysis as 6 weeks before (baseline), 4 weeks of intervention (treatment, 36 days) and 8 months dry-out (no treatment). Urine samples were mixed with 1:2:4 v/v/v of: aqueous urine:95% ethanol:ethyl acetate for 10 min with vigorous shaking. The ethyl acetate layer was allowed to separate with gravity at room temperature, and then it was removed with a pipette and evaporated with an air stream to dryness in a vacuum hood. In this manner 1-2 ml of urine were reconstituted in 0.2 ml water or ethanol which represented a 5-10 fold increase in concentration. […] The urine samples were diluted 1:2:4 v/v/v with ethanol and ethyl acetate, and then the ethyl acetate fraction dried, solubilized in 0.2 ml water and used for HPLC analyses with 20 μl injections directly onto a C18 80×4.6 mm. The mobile phase was 0.2% trifluoroacetic (TFA):methanol:acetonitrile (70:30):water in a ratio 8:8:84 (v/v/v). The UV detector was set at 215 nm, and quinic acid eluted with a retention of 0.97-1.05 min and nicotinamide at 2.6-2.9 min. The detection limit in urine was about 1.5 mg/ml for quinic acid and for nicotinamide it was 0.015 mg/ml. […] The urine samples were diluted 1:2:4 v/v/v with ethanol and ethyl acetate, and then the ethyl acetate fraction dried, solubilized in 0.2 ml water and used for HPLC analyses with 20 μl injections directly onto a C18 80×4.6 mm. The mobile phase was 70:30 v/v, 0.2% TFA: 30% methanol. The UV detector was set at 225 nm. Tryptophan eluted after 5.2-5.4 min and hippuric acid after 3.1-3.4 min.
# [3] = Molar ratio from neutralization of free organic acid with hydroxides; assay type: physicochemical; conditions: salt or chelate; listed as Quinic acid ammonium salt
# Method: Determination of salts and chelates of some naturally occurring polyhydroxylated and polycarboxylated organic acids are provided in Table 1. Experimental molar ratios were calculated from neutralization to pH=7.5 of free protonated organic acid (H^+) with sodium, potassium or ammonium hydroxides.
# [4] = 3000 mg/day for 36 days (printed HL)
# [5] = subject one (3000 mg/day), 1st 4 months no treatment, n=11
# [6] = subject one (3000 mg/day), 2nd 4 months no treatment, n=3
# [7] = subject one, 3000 mg/day QA (30 days), n=5
# [8] = subject two (1500 mg/day), 1st 4 months no treatment, n=6
# [9] = subject two (1500 mg/day), 2nd 4 months no treatment, n=6
# [10] = subject two, 1500 mg/day QA (30 days), n=5
smiles,measurement,setting,value
"O=C(O)[C@]1(O)C[C@@H](O)[C@@H](O)[C@H](O)C1 [Aqua Bimini™, quinic acid ammonium chelate]",quinic acid in blood serum samples,"[1]; 1500 mg or 3000 mg daily oral, 6 samples day 10 to day 37",No quinic acid was found
same,quinic acid in human serum,"[1]; efficacious dose 25 mg/kg in humans, HPLC detection limit 1 mg/kg",no quinic acid found
same,urinary tryptophan at start of treatment,[2]; 3000 mg/day (printed HL),9.32 µM
same,"Increase in urinary quinic acid (QA) metabolite (ratio), tryptophan",[2]; [4],2.44
same,Increase tryptophan/increase thiols,[2]; [4],1.94
same,average urinary tryptophan during treatment + follow-up,[2]; [4],22.7 µM
same,"Increase in urinary quinic acid (QA) metabolite (ratio), nicotinamide",[2]; HL 1500 mg/day for 36 days,2.83
same,"Increase in urinary quinic acid (QA) metabolite (ratio), tryptophan",[2]; HL 1500 mg/day for 36 days,0.99
same,Increase nicotinamide/increase thiols,[2]; HL 1500 mg/day for 36 days,2.32
same,Increase tryptophan/increase thiols,[2]; HL 1500 mg/day for 36 days,0.82
same,average urinary nicotinamide during treatment + follow-up,[2]; HL 1500 mg/day for 36 days,215 µM
same,average urinary tryptophan during treatment + follow-up,[2]; HL 1500 mg/day for 36 days,21.3 µM
same,urinary nicotinamide at start of treatment,[2]; HL 1500 mg/day,76 µM
same,urinary tryptophan at start of treatment,[2]; HL 1500 mg/day,19.3 µM
same,"Increase in urinary quinic acid (QA) metabolite (ratio), nicotinamide",[2]; RP 3000 mg/day for 36 days,5.41
same,Increase nicotinamide/increase thiols,[2]; RP 3000 mg/day for 36 days,4.29
same,average urinary nicotinamide during treatment + follow-up,[2]; RP 3000 mg/day for 36 days,57.9 µM
same,urinary nicotinamide at start of treatment,[2]; RP 3000 mg/day,10.7 µM
same,"Dose recovery (excrete/dose), excreted as unmetabolized quinic acid","[2]; Subject 3000 mg/day, 9 month evaluation period",59%
same,Ratio of total dose excreted in 9 months,"[2]; human, in vivo, 9 months",2.86
same,remaining dose absorbed as hippuric acid or further metabolized to other compounds,"[2]; human, in vivo, 1 day",29.7%
same,dose excreted at 9 month,"[2]; human, 1500 mg/day, Subject 1500 mg/day, 9 month evaluation period",40%
same,dose excreted at 9 month,"[2]; human, 3000 mg/day, Subject 3000 mg/day, 9 month evaluation period",56%
same,"Urinary excretion daily sample, Tryptophan (avg)","[2]; oral human dose 21-42 mg/kg (1500-3000 mg/day), 33 days, average over 9 months of RP and HL",Tryptophan. = 4.2 mg/liter^b
same,urinary Nicotinamide,[2]; [5],71 ± 44 µM
same,urinary Tryptophan,[2]; [5],22 ± 7 µM
same,urinary Nicotinamide,[2]; [6],71 ± 63 µM
same,urinary Tryptophan,[2]; [6],19 ± 6 µM
same,urinary Nicotinamide,"[2]; subject one (3000 mg/day), total sample mean, 9 months, n=19",58 ± 46 µM
same,urinary Tryptophan,"[2]; subject one (3000 mg/day), total sample mean, 9 months, n=19, listed as QA",19 ± 7 µM
same,urinary Nicotinamide,[2]; [7],21 ± 16 µM
same,urinary Tryptophan,[2]; [7],13 ± 5 µM
same,urinary Nicotinamide,[2]; [8],453 ± 139 µM
same,urinary Tryptophan,[2]; [8],30 ± 8 µM
same,urinary Nicotinamide,[2]; [9],24 ± 7 µM
same,urinary Tryptophan,[2]; [9],17 ± 7 µM
same,urinary Nicotinamide,"[2]; subject two (1500 mg/day), total sample mean, 9 months, n=17",216 ± 210 µM
same,urinary Tryptophan,"[2]; subject two (1500 mg/day), total sample mean, 9 months, n=17, listed as QA",22 ± 9 µM
same,urinary Nicotinamide,[2]; [10],163 ± 91 µM
same,urinary Tryptophan,[2]; [10],18 ± 5 µM
same,"ratio of nicotinamide/thiols ratios, 3000 versus 1500 mg per day",[2]; theoretical dose ratio 2.0,1.85
same,"ratio of tryptophan/thiols ratios, 3000 versus 1500 mg per day",[2]; theoretical dose ratio 2.0,2.4
same,Determination of structure existing in water,[3],chelate

# Source: US20100227827A1, “METHOD OF INCREASING TRYPTOPHAN AND NICOTINAMIDE LEVELS IN VIVO” (priority 2006, published 2010)
